Several values for one entry are separate records, joined by “and”; a condition that tells them apart may be missing. Identical values can stand only once.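 Briefly, cells in 96-well plates were exposed to five compound concentrations for 48 h, and endpoints were estimated by linear interpolation. GI50 marks 50% less growth. The concentration for full growth arrest is given as TGI.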
tested on: SF-539 CNS; assay: NCI anticancer screen, dose series, 48 h

SMILES	TGI	GI50
Cc1[nH]c2ccccc2c1C1Cc2ccccc2N1C(=O)/C=C\C(=O)O (stereo unspecified)	75.2 µM	
CCN(CC)CCC(=O)NC1c2ccc(Cl)cc2Oc2c(C)cccc21 (stereo unspecified)	27.7 µM	
Nc1c(C(=O)c2ccc(Cl)cc2)sc(Nc2ccccc2)c1-c1nc2ccccc2s1	> 100 µM	2.63 µM

tested on: U251 CNS; assay: NCI anticancer screen, dose series, 48 h

SMILES	GI50	TGI
COc1cc2c(cc1OCCCOc1cc3c(cc1OC)C(=O)N1C[C@H](F)C[C@H]1C=N3)N=C[C@@H]1C[C@@H](F)CN1C2=O	1.96 µM	4.46 µM
c1ccc2c(c1)CCC/C2=N\OCC1CO1 (stereo unspecified)		> 100 µM
COC(=O)C1C(C(=O)OC)C2(OC)c3ccccc3-c3ccccc3C12 (stereo unspecified)		> 100 µM
O=C1OC(CC(=O)c2ccc(Cl)c(Cl)c2)C(Cl)=C1Cl (stereo unspecified)		> 100 µM
CCN(CC)CC(O)CNc1ccc(NCC2CO2)c2c1C(=O)c1ccccc1C2=O (stereo unspecified)	0.373 µM	19.6 µM
CC(=O)c1cccc(N2COC(C)(C)c3nc4ccccc4n3C2)c1		> 100 µM
O=[N+]([O-])c1cccc(C2N3CCCCC3[C@@H]3c4[nH]c5ccccc5c4CCN23)c1 (stereo partly specified)		28.4 µM
CCOC(=O)NC(=O)c1cn(CC(=O)NCC(=O)NCC(=O)NCCCN2CCN(CCCNC(=O)CNC(=O)CNC(=O)Cn3cc(C(=O)NC(=O)OCC)c(=O)[nH]c3=O)CC2)c(=O)[nH]c1=O		> 100 µM
O=S(=O)(N/N=C/c1ccc(/C=N/NS(=O)(=O)c2ccccc2)cc1)c1ccccc1		> 100 µM
CC[C@@H]1OC2(C)CC(S(=O)(=O)c3ccccc3O)CC1O2 (stereo partly specified)		> 100 µM
CCOC(=O)C(N)C[S][Sn]([CH3])([CH3])[Cl] (stereo unspecified)	> 100 µM	> 100 µM
NNC(=O)/C(=C/c1ccc(Cl)c(Cl)c1)NC(=O)c1ccccc1		> 100 µM
CC(=O)OCC1OC(N2C(=O)C(=O)c3cc(C)ccc32)C(OC(C)=O)C(OC(C)=O)C1OC(C)=O (stereo unspecified)		> 100 µM
O=C1c2ccccc2-c2cccc3ccc(Cc4ccc5ccccc5c4)c1c23		> 100 µM
Cc1cc(C)c([O-])c(CN(C)CCN(C)Cc2cc(C)cc(C)c2[O-])c1.O=C([O-])c1cccc(C(=O)[O-])n1.[Ti+4]	2.92 µM	> 100 µM
COc1cc(OC)c(/C=C/S(=O)(=O)Cc2cnc(OC)c(N)c2)c(OC)c1	< 0.0224 µM	> 100 µM
CCOC(=O)C(Cc1c[nH]c2ccc(N)cc12)(NC(C)=O)C(=O)OCC	> 1000 µM	> 1000 µM
CN1CCN(CCCN)CC1		> 100 µM
COc1cc(Cl)c2c3c(c(C(C)=O)oc13)CCC2		> 100 µM

SMILES	GI50	TGI
CC(=O)Nc1ccc(C(=O)NN2C(=O)C(Cl)C2c2ccc(Cl)cc2)cc1 (stereo unspecified)		> 56.7 µM
Nc1ccc(N(S(=O)(=O)c2ccccc2)S(=O)(=O)c2ccccc2)c(Cl)c1		> 100 µM
CCCCc1c2c(nc3c1CCC/C3=C\c1ccccc1)C(=O)CCC2		34 µM
CC(O)c1cccc(NCc2c3ccccc3c(=O)n3c2oc2ccccc23)c1 (stereo unspecified)	9.92 µM	21.5 µM
COc1ccc([N+]2=NC(c3ccc([N+](=O)[O-])cc3)=NN(c3ccccc3)C2)cc1		> 100 µM
C=CC1(C(=O)O)CCC(C(C)(C)C)CC1 (stereo unspecified)		> 100 µM
NC(=O)C(=Cc1ccc(C(O)P(=O)(O)O)cc1)C(N)=O (stereo unspecified)		> 100 µM
O=C(Nc1cc(Cl)c(Cl)cc1Cl)C(=O)C1C=CCS1(=O)=O (stereo unspecified)		> 100 µM
CCNC(=O)CCN(C(=O)O)S(=O)(=O)c1ccc(NC(=O)c2ccccc2)cc1		> 100 µM
O=C(/C=C/c1ccc([N+](=O)[O-])o1)N1CCN(Cc2ccccc2)CC1		28.1 µM
CC1C[C@@]2(c3ccccc3)C(=O)CCC[C@H]2N1 (stereo partly specified)		> 100 µM
O=[N+]([O-])c1cccc(/C=N\NS(=O)(=O)c2ccc(Cl)cc2)c1O		> 100 µM
CC(=O)N[C@H]1C=C[C@@H]2/C=C(C)/C=C/[C@@H](C)[C@H]([C@H](C)[C@H](O)[C@@H](C)NC(C)=O)OC(=O)/C=C/C=C(C)\C=C\[C@]2(C)C1	0.00747 µM and 0.0045 µM	4.65 µM and > 45 µM
CC1=C(C(=O)Nc2ccccc2C)C(c2ccc(Cl)c(Cl)c2)C(C(=O)Nc2ccccc2C)=C(C)N1		40.5 µM
Cc1cc(I)cc(CN(C)CCCN2CCSCC2)c1O	33.9 µM	95.6 µM
CCCCOC(=O)NC(=O)c1cn(CCCOC(=O)CCCCCCCCC(=O)OCCCn2cc(C(=O)NC(=O)OCCCC)c(=O)[nH]c2=O)c(=O)[nH]c1=O		> 100 µM
Cc1[nH]c2ccccc2c1C1Cc2ccccc2N1C(=O)/C=C\C(=O)O (stereo unspecified)		70.7 µM
Nc1c(C(=O)c2ccc(Cl)cc2)sc(Nc2ccccc2)c1-c1nc2ccccc2s1	3.06 µM	36.3 µM

Source: PubChem BioAssay (NCI)
